This passage reports IC50 results from US11078228B2, “Ectonucleotidase inhibitors and methods of use thereof” (Calithera Biosciences, Inc., priority 2018, dated 2021).

recombinant CD73, sequence (P21589 27-547): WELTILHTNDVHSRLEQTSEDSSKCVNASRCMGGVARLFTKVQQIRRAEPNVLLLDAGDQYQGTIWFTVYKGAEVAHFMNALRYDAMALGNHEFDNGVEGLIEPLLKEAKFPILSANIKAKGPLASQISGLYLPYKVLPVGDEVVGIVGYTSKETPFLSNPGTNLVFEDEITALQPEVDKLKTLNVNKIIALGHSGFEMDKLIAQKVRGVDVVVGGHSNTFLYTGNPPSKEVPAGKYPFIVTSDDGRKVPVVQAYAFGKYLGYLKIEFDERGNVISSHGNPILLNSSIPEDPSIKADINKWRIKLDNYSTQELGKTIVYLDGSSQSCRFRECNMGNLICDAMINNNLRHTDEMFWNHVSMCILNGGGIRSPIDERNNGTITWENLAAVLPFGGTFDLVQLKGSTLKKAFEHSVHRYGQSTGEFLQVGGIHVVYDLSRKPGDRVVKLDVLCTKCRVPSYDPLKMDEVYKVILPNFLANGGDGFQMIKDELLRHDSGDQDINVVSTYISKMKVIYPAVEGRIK

For the assay, the target named is recombinant CD73 (Homo sapiens (Human), UniProt P21589). Put plainly: Assay 1: Inhibition of the CD73 enzyme in vitro (0.5 nM CD73, 30 min room temperature, Malachite Green). It is filed as biochemical. The settings on record: 0.5 nM CD73, 30 minutes at room temperature. A digest of the protocol:
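Soluble recombinant human CD73; reaction run 30 min at room temperature, then Malachite Green added. Absorbance at 630 nm read after 5 min, with released inorganic phosphate quantified against a phosphate standard curve.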
In the case of `C#C[C@@]1(O)[C@@H](COC(Cc2cccc(OC(F)(F)F)c2)(C(=O)O)c2cscn2)O[C@@H](n2cnc3c(N)nc(Cl)nc32)[C@@H]1O` (stereo partly drawn) [Example 183, 2-(((2R,3S,4R,5R)-5-(6-amino-2-chloro-9H-purin-9-yl)-3-ethynyl-3,4-dihydroxytetrahydrofuran-2-yl)methoxy)-2-(thiazol-4-yl)-3-(3-(trifluoromethoxy)phenyl)propanoic acid], the IC50 is 56 nM.

On to `C#C[C@@]1(O)[C@@H](COC(C(=O)O)S(=O)(=O)c2ccccc2)O[C@@H](n2cnc3c(NC4CCCC4)nc(Cl)nc32)[C@@H]1O` (stereo partly drawn) [Example 129, 2-(((2R,3S,4R,5R)-5-(2-chloro-6-(cyclopentylamino)-9H-purin-9-yl)-3-ethynyl-3,4-dihydroxytetrahydrofuran-2-yl)methoxy)-2-(phenylsulfonyl)acetic acid], for which the IC50 was 1580 nM.

On to `C#C[C@@]1(O)[C@@H](CO[C@](Cc2ccccc2)(C(=O)O)c2cscn2)O[C@@H](n2cnc3c(NC)nc(Cl)nc32)[C@@H]1O` [Example 187, (S)-2-(((2R,3S,4R,5R)-5-(2-chloro-6-(methylamino)-9H-purin-9-yl)-3-ethynyl-3,4-dihydroxytetrahydrofuran-2-yl)methoxy)-3-phenyl-2-(thiazol-4-yl)propanoic acid], for which the IC50 is 10 nM.

Turning to `C#C[C@@]1(O)[C@@H](COC(C(=O)NO)c2cscn2)O[C@@H](n2cnc3c(N)nc(Cl)nc32)[C@@H]1O` (single isomer, unassigned) [Example 186], the IC50 amounted to 8830 nM.

Consider `C#C[C@@]1(O)[C@@H](COC(C(=O)O)C(=O)N2CCCC2)O[C@@H](n2cnc3c(NC4CCCC4)nc(Cl)nc32)[C@@H]1O` (stereo partly drawn) [Example 114, 2-(((2R,3S,4R,5R)-5-(2-chloro-6-(cyclopentylamino)-9H-purin-9-yl)-3-ethynyl-3,4-dihydroxytetrahydrofuran-2-yl)methoxy)-3-oxo-3-(pyrrolidin-1-yl)propanoic acid], for which the IC50 stood at 177 nM.

`C#C[C@@]1(O)[C@@H](CO[C@](C#N)(Cc2ccccc2)C(=O)O)O[C@@H](n2cnc3c(N)nc(Cl)nc32)[C@@H]1O` (single isomer, unassigned) [Example 189]: the IC50 turned out to be 1850 nM.

As to `C#C[C@@]1(O)[C@@H](COC(Cc2ccccc2)(C(=O)O)C(=O)O)O[C@@H](n2cnc3c(NC4CCCC4)nc(Cl)nc32)[C@@H]1O` [Example 91, 2-benzyl-2-(((2R,3S,4R,5R)-5-(2-chloro-6-(cyclopentylamino)-9H-purin-9-yl)-3-ethynyl-3,4-dihydroxytetrahydrofuran-2-yl)methoxy)malonic acid], the IC50 was 0.3 nM.
